Experimental data published in patent publication US10919923B2, “Organic phosphorus-based compound, and flame retardant and flame-retardant product comprising the same” (TEIJIN LIMITED, priority 2016, dated 2021).

How the values were obtained:
Assay type in all cases: physicochemical
[1] = Solubility in 20° C. water (visual check of dissolution); conditions: distilled water at 20° C., stirred 1 minute per addition
Experimental: Dissolution was visually checked after the organic phosphorus-based compound was added little by little to 100 g of distilled water adjusted to 20° C. and stirred for 1 minute for each addition.

[2] = ΔpH value of filtrate after stirring compound in dispersant solution; conditions: 1 g compound in 1% phenol type nonionic surfactant solution, |pH1−pH2|
Experimental: The ΔpH value can be measured by the following method using a commercially available pH measuring instrument. 1 g of a dispersant is added to 99 g of distilled water used for the measurement and stirred to measure the pH of the obtained aqueous solution (the measurement value is designated as pH1). After 1 g of the organic phosphorus-based compound (1) of the present invention is added to the aqueous solution and stirred for 1 minute, the organic phosphorus-based compound (1) is filtered. The pH of the obtained filtrate is measured (the measurement value is designated as pH2). The ΔpH value of the present invention is calculated from the following equation (I). ΔpH value=|pH1−pH2| (I) (vi) Volume Standard Median Diameter, (vii) Maximum Particle Diameter, (viii) Standard Deviation
This was measured by the following method using a pH measuring instrument (HORIBA pH METER D-52 of HORIBA, LTD.). 1 g of a dispersant (phenol type nonionic surfactant) was added to 99 g of distilled water used for the measurement and stirred to measure the pH of the obtained aqueous solution (the measurement value was designated as pH1). After 1 g of the organic phosphorus-based compound was added to the aqueous solution and stirred for 1 minute, the organic phosphorus-based compound was filtered. The pH of the obtained filtrate was measured (the measurement value was designated as pH2). The ΔpH value was calculated from the following equation (I). ΔpH value=|pH1−pH2| (I) (vi) Volume Standard Median Diameter, (vii) Maximum Particle Diameter, (viii) Standard Deviation

[3] = Storage stability of processing agent (fire retardant for fibers); set-up: key: ◯: no agglomeration and no sedimentation are seen by visual checking; X: agglomeration and sedimentation are seen by visual checking; conditions: processing agent with 30 parts compound per 100 parts polyacrylic acid ester emulsion, 25° C. for 24 hours
Experimental: After interior car sheet cloth for automobiles was coated with the following processing liquid, its flame resistance and physical properties were tested. (test cloth): Polyester 100% woven car sheet cloth (weight of 300 g/m^2) was used. (processing agent): This was prepared by adding 1.5 parts of a nonionic surfactant, 1 part of a polyacrylic acid-based thickener and 0.5 part of 25% ammonia water to 100 parts of a polyacrylic acid ester emulsion having a solid content of 45% and further adding 30 parts of each of the above organic phosphorus-based compounds (FR-1 to FR-6) under agitation. The obtained processing agent was left to stand at 25° C. for 24 hours to evaluate its storage stability based on the following criteria.
◯: no agglomeration and no sedimentation are seen by visual checking
X: agglomeration and sedimentation are seen by visual checking

[4] = Particle size distribution by Microtrack HRA
Experimental: The volume standard median diameter (vi), the maximum particle diameter (vii) and the standard deviation (viii) can be measured by using the microtrack of Nikkiso Co., Ltd. and measurement conditions that the particles should be transparent and that the particle shape should be nonspherical.
They were measured by using the Microtrack HRA of Nikkiso Co., Ltd. The measurement conditions are that the particles should be transparent, the particle shape should be nonspherical, the refractive index of the particles should be 1.60, and the refractive index of the solvent should be 1.33.

Structure (SMILES)	(ii) Solubility in 20° C. water [1]	(v) ΔpH value [2]	Stability [3]	(vi) Volume standard median diameter [4]	(vii) Maximum particle diameter [4]
O=P1(C(c2ccccc2)c2ccccc2)OCC2(CO1)COP(=O)(C(c1ccccc1)c1ccccc1)OC2 (stereo not drawn) [FR-4, 2,4,8,10-tetraoxa-3,9-diphosphaspiro[5.5]undecane, 3,9-bis(diphenylmethyl)-3,9-dioxide]	0.01 g/100 g of water	0.7	◯	25 μm	180 μm
O=P1(Cc2ccccc2)OCC2(CO1)COP(=O)(Cc1ccccc1)OC2 (single isomer, unassigned) [FR-1, 2,4,8,10-tetraoxa-3,9-diphosphaspiro[5.5]undecane,3,9-dibenzyl-3,9-dioxide]	0.01 g/100 g of water	0.5	◯	18 μm	150 μm
CC(c1ccccc1)P1(=O)OCC2(CO1)COP(=O)(C(C)c1ccccc1)OC2 (stereo not drawn) [FR-2, 2,4,8,10-tetraoxa-3,9-diphosphaspiro[5.5]undecane,3,9-diα-methylbenzyl-3,9-dioxide]	0.01 g/100 g of water	0.6	◯	20 μm	160 μm
O=P1(Cc2ccccc2)OCC2(CO1)COP(=O)(Cc1ccccc1)OC2 (single isomer, unassigned) [FR-5, 2,4,8,10-tetraoxa-3,9-diphosphaspiro[5.5]undecane, 3,9-dibenzyl-3,9-dioxide]	0.01 g/100 g of water	0.5	◯	40 μm	300 μm
O=P1(Cc2ccccc2)OCC2(CO1)COP(=O)(Cc1ccccc1)OC2 (single isomer, unassigned) [FR-6, 2,4,8,10-tetraoxa-3,9-diphosphaspiro[5.5]undecane,3,9-dibenzyl-3,9-dioxide]	0.01 g/100 g of water	1.3	X	21 μm	140 μm
O=P1(CCc2ccccc2)OCC2(CO1)COP(=O)(CCc1ccccc1)OC2 (stereo not drawn) [FR-3, 2,4,8,10-tetraoxa-3,9-diphosphaspiro[5.5]undecane,3,9-di(2-phenylethyl)-3,9-dioxide]	0.01 g/100 g of water	0.3	◯	22 μm	140 μm
